Assay results as given in US5665716A, “24-homo vitamin D derivatives, process for their production and pharmaceutical preparations obtained therefrom” (Schering Aktiengesellschaft, priority 1989, dated 1997).

Test system: Keratinocytes of newly born mice
Experiment: antiproliferative potency: 3H thymidine incorporation in DNA of keratinocytes
Assay type: cell-based, mouse (neonatal NMRI mice)
Details: Keratinocyte; neonatal mouse keratinocytes, 24 hours with test substance in serum-free medium at 32.5° C., then 4 hours 3H methyl thymidine; read-out: IC50, inhibition of 3H thymidine incorporation in DNA
Experimental: Keratinocytes of newly born mice, with a slight change of the method of Yuspa, S. and Harris, C.
Neonatal NMRI mice of both sexes are killed by decapitation, the skin is removed, washed in an antibiotic-antimycotic solution and incubated with the dermal side downward in dispase II solution ([…] in tissue culture medium M199+25 mmol/1 of HEPES+15% fetal calf serum (FCS)+50 U/ml of penicillin/streptomycin (P/S) (preparation medium, PM) at 4° C. overnight. The epidermis is removed and an individual cell suspension is produced by trypsinization. After centrifuging, the cell sediment is resuspended, after trypan blue dyeing, the number of living small round cells is determined and the cells are sown in a density of 4×10^5 cells/cm^2 in Primaria 24-hole plates in tissue culture medium (M199+15% FCS+50 U/ml of P/S). […] Then 0.4 microCi/50 microliters of ^3 H methyl thymidine (40 Ci/mmol) is added. After 4 hours the medium is suctioned off and the reaction is ended by addition of 500 microliters of ice-cold 10% trichloroacetic acid (TCA). The cells are washed with TCA and PBS, lysed by incubation in a proteinase K solution (10 mmol/l of tris-HCl, 10 mmol/l of EDTA, 10 mmol/l of NaCl, 0.2% of Triton-X 100, pH 8.0, 50 micrograms/ml of […]) and the lysate is clarified by centrifuging. In the supernatant the radioactivity is determined scintillation photometrically and, after specific staining of the DNA with diamidinophenylindole (DAPI), the DNA concentration is fluorescence photometrically determined.

Row | Compound | IC50
1 | C=C1/C(=C\C=C2/CCC[C@]3(C)[C@@H]([C@H](C)CCCC(C)(C)O)CC[C@@H]23)C[C@@H](O)C[C@@H]1O [Calcitriol, 1alpha,25-dihydroxy-cholecalciferol, reference compound] | 2.7 nM
2 | C=C1/C(=C\C=C2/CCC[C@]3(C)[C@@H]([C@H](C)/C=C/[C@H](O)CC(C)C)CC[C@@H]23)C[C@@H](O)C[C@@H]1O [Compound A, (5Z,7E,22E)-(1S,3R,24R)-9,10-seco-24a-homo-5,7,10(19),22-cholestatetraene-1,3,24-triol] | 6 nM
3 | C=C1/C(=C\C=C2/CCC[C@]3(C)[C@@H]([C@H](C)/C=C/[C@@H](O)CC(C)C)CC[C@@H]23)C[C@@H](O)C[C@@H]1O [Compound B, (5Z,7E,22E)-(1S,3R,24S)-9,10-seco-24a-homo-5,7,10(19),22-cholestatetraene-1,3,24-triol] | 9.5 nM
